Results as given in patent US10844077B2, “Thiazolyl-containing compounds for treating proliferative diseases” (Dana-Farber Cancer Institute, Inc., priority 2014, dated 2020).
Where two headings read alike, the source gives them in different places.

Key:
Type in all cases: binding
broad panel of kinases [1] = target: broad panel of kinases (Homo sapiens, UniProt O00141); settings: SGK; 1 μM
broad panel of kinases [2] = target: broad panel of kinases (Homo sapiens, UniProt O14757); settings: CHEK1; 1 μM
broad panel of kinases [3] = target: broad panel of kinases (Homo sapiens, UniProt O75716); settings: STK16; 1 μM
broad panel of kinases [4] = target: broad panel of kinases (Homo sapiens, UniProt P00519, F317I); settings: 1 μM
broad panel of kinases [5] = target: broad panel of kinases (Homo sapiens, UniProt P00519, Q252H); settings: 1 μM
broad panel of kinases [6] = target: broad panel of kinases (Homo sapiens, UniProt P00519, T315I); settings: 1 μM
broad panel of kinases [7] = target: broad panel of kinases (Homo sapiens, UniProt P00533, G719S); settings: EGFR(G719S); 1 μM
broad panel of kinases [8] = target: broad panel of kinases (Homo sapiens, UniProt P10721, D816H); settings: KIT(D816H); 1 μM
broad panel of kinases [9] = target: broad panel of kinases (Homo sapiens, UniProt P11802); settings: 1 μM
broad panel of kinases [10] = target: broad panel of kinases (Homo sapiens, UniProt P15056); settings: BRAF; 1 μM
broad panel of kinases [11] = target: broad panel of kinases (Homo sapiens, UniProt P16234); settings: PDGFRA; 1 μM
broad panel of kinases [12] = target: broad panel of kinases (Homo sapiens, UniProt P28482); settings: ERK2; 1 μM
broad panel of kinases [13] = target: broad panel of kinases (Homo sapiens, UniProt P31751); settings: AKT2; 1 μM
broad panel of kinases [14] = target: broad panel of kinases (Homo sapiens, UniProt P35968); settings: VEGFR2; 1 μM
broad panel of kinases [15] = target: broad panel of kinases (Homo sapiens, UniProt P37023); settings: ACVRL1; 1 μM
broad panel of kinases [16] = target: broad panel of kinases (Homo sapiens, UniProt P37173); settings: TGFBR2; 1 μM
broad panel of kinases [17] = target: broad panel of kinases (Homo sapiens, UniProt P41240); settings: CSK; 1 μM
broad panel of kinases [18] = target: broad panel of kinases (Homo sapiens, UniProt P42680); settings: TEC; 1 μM
broad panel of kinases [19] = target: broad panel of kinases (Homo sapiens, UniProt P45985); settings: MEK4; 1 μM
broad panel of kinases [20] = target: broad panel of kinases (Homo sapiens, UniProt P53355); settings: DAPK1; 1 μM
broad panel of kinases [21] = target: broad panel of kinases (Homo sapiens, UniProt P53779); settings: JNK3; 1 μM
broad panel of kinases [22] = target: broad panel of kinases (Homo sapiens, UniProt Q00535); settings: CDK5; 1 μM
broad panel of kinases [23] = target: broad panel of kinases (Homo sapiens, UniProt Q04771); settings: ACVR1; 1 μM
broad panel of kinases [24] = target: broad panel of kinases (Homo sapiens, UniProt Q07912); settings: TNK2; 1 μM
broad panel of kinases [25] = target: broad panel of kinases (Homo sapiens, UniProt Q13627); settings: DYRK1A; 1 μM
broad panel of kinases [26] = target: broad panel of kinases (Homo sapiens, UniProt Q16539); settings: p38-alpha; 1 μM
broad panel of kinases [27] = target: broad panel of kinases (Homo sapiens, UniProt Q5S007); settings: LRRK2; 1 μM
broad panel of kinases [28] = target: broad panel of kinases (Homo sapiens, UniProt Q6P3R8); settings: NEK5; 1 μM
broad panel of kinases [29] = target: broad panel of kinases (Homo sapiens, UniProt Q7L7X3); settings: TAOK1; 1 μM
broad panel of kinases [30] = target: broad panel of kinases (Homo sapiens, UniProt Q8IU85); settings: CAMK1D; 1 μM
broad panel of kinases [31] = target: broad panel of kinases (Homo sapiens, UniProt Q96D53); settings: ADCK4; 1 μM
broad panel of kinases [32] = target: broad panel of kinases (Homo sapiens, UniProt Q9BYT3); settings: STK33; 1 μM
broad panel of kinases [33] = target: broad panel of kinases (Homo sapiens, UniProt Q9NWZ3); settings: IRAK4; 1 μM
broad panel of kinases [34] = target: broad panel of kinases (Homo sapiens, UniProt Q9UQ88); settings: CDC2L2; 1 μM
broad panel of kinases [35] = target: broad panel of kinases (Homo sapiens, UniProt Q9Y2K2); settings: QSK; 1 μM
broad panel of kinases [36] = settings: 1 μM

Sequence of broad panel of kinases (Homo sapiens, UniProt P11802) (P11802 2-303 limits assumed): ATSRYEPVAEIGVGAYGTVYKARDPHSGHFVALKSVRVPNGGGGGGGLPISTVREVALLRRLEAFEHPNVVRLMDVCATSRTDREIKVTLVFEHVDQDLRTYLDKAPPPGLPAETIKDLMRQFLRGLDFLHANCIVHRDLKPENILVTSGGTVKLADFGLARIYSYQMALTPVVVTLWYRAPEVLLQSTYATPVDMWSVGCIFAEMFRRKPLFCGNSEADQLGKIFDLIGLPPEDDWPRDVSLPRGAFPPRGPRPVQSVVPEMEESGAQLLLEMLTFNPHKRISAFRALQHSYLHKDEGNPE
Sequence of broad panel of kinases (Homo sapiens, UniProt P16234) (P16234 24-1089 limits assumed): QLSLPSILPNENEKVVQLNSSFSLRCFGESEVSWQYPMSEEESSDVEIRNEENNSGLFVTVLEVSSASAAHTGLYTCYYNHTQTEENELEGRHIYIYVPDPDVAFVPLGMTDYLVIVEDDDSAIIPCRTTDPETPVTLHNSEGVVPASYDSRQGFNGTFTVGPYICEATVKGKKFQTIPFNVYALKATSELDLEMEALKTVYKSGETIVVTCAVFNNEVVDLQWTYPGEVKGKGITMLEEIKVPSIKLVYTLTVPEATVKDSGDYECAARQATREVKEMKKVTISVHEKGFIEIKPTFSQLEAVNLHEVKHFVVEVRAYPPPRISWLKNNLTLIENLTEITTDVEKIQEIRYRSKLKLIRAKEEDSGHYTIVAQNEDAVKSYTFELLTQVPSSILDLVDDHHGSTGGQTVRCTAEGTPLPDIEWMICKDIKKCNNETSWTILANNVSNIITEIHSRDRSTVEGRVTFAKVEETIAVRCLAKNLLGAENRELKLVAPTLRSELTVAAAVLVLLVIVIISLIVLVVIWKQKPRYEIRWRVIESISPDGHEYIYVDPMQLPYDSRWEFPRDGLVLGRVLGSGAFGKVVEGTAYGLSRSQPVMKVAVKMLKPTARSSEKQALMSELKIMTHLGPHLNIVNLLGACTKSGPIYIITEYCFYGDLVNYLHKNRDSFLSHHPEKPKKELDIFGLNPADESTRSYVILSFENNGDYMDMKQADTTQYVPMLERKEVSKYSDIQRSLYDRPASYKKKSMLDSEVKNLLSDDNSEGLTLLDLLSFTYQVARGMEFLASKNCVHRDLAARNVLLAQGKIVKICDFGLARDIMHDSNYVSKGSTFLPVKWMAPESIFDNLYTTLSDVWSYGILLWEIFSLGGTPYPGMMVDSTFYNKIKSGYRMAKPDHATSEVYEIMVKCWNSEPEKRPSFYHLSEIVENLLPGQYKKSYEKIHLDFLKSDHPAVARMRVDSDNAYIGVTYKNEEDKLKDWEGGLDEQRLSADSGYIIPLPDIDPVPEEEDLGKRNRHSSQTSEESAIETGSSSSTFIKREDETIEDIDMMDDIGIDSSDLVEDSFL
Sequence of broad panel of kinases (Homo sapiens, UniProt P37173) (P37173 23-567 limits assumed): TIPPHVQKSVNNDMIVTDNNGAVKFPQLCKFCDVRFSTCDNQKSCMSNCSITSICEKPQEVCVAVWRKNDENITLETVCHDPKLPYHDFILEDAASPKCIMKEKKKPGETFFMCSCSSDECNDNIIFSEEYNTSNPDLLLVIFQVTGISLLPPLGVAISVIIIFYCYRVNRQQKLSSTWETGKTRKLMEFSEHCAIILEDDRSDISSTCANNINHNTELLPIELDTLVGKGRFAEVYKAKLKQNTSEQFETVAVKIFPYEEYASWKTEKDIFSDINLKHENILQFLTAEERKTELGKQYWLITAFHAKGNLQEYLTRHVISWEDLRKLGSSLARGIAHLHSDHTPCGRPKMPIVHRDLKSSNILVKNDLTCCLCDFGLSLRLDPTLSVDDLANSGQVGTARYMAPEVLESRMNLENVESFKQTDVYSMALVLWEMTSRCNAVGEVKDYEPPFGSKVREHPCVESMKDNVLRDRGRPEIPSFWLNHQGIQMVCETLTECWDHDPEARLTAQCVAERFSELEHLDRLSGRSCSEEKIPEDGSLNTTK
Sequence of broad panel of kinases (Homo sapiens, UniProt P00533, G719S) (P00533 25-1210 G719S limits assumed): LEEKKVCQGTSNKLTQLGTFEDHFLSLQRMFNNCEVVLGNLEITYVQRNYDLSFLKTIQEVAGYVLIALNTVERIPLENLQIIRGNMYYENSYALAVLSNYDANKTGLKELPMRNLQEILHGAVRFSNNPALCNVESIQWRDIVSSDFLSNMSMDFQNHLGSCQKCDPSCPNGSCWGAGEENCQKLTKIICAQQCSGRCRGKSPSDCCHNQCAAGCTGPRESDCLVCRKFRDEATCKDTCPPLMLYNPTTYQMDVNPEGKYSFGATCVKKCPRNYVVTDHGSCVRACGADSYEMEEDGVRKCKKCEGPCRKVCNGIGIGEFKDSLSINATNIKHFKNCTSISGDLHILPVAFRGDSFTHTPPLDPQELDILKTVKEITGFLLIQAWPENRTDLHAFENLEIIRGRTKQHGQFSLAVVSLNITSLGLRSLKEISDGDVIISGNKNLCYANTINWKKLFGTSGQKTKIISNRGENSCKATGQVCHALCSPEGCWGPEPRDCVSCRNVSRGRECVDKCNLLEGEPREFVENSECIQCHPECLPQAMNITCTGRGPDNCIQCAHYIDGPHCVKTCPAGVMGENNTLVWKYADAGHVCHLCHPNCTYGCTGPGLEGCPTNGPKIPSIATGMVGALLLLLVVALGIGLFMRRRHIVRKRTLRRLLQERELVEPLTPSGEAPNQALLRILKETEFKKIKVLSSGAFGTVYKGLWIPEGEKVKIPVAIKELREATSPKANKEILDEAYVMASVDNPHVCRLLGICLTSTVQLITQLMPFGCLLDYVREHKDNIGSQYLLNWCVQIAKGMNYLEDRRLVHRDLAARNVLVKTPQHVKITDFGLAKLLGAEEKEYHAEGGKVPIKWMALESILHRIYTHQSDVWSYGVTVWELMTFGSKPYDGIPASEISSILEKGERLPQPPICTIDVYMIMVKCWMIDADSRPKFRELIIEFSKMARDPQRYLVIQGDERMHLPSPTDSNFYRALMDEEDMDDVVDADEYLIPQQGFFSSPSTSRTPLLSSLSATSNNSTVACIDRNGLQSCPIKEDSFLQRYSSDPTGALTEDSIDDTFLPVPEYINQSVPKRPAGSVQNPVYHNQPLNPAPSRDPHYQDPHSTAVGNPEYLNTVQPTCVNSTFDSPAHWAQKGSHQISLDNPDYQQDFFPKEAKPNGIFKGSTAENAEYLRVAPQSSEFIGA
Sequence of broad panel of kinases (Homo sapiens, UniProt P15056) (P15056 2-766 limits assumed): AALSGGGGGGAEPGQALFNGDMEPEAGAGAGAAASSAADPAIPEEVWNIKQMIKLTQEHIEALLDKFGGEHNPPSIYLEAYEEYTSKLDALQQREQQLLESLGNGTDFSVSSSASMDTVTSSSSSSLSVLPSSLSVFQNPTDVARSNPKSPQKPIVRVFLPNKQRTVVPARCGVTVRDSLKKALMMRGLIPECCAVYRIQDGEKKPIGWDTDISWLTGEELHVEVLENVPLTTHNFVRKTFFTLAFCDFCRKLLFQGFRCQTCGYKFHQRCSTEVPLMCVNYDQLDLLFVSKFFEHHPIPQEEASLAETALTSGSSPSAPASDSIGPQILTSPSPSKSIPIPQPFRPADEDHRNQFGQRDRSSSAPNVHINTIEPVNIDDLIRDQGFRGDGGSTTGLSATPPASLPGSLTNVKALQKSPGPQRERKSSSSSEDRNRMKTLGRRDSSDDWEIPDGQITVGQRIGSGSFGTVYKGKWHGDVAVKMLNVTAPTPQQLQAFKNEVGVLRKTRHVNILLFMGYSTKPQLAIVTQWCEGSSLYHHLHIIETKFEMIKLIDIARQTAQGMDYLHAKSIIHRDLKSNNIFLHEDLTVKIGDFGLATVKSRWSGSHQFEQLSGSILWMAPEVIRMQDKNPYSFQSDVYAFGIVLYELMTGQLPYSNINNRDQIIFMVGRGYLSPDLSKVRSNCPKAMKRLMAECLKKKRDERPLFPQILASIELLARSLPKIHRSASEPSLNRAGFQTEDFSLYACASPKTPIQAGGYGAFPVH
Sequence of broad panel of kinases (Homo sapiens, UniProt P10721, D816H) (P10721 26-976 D816H limits assumed): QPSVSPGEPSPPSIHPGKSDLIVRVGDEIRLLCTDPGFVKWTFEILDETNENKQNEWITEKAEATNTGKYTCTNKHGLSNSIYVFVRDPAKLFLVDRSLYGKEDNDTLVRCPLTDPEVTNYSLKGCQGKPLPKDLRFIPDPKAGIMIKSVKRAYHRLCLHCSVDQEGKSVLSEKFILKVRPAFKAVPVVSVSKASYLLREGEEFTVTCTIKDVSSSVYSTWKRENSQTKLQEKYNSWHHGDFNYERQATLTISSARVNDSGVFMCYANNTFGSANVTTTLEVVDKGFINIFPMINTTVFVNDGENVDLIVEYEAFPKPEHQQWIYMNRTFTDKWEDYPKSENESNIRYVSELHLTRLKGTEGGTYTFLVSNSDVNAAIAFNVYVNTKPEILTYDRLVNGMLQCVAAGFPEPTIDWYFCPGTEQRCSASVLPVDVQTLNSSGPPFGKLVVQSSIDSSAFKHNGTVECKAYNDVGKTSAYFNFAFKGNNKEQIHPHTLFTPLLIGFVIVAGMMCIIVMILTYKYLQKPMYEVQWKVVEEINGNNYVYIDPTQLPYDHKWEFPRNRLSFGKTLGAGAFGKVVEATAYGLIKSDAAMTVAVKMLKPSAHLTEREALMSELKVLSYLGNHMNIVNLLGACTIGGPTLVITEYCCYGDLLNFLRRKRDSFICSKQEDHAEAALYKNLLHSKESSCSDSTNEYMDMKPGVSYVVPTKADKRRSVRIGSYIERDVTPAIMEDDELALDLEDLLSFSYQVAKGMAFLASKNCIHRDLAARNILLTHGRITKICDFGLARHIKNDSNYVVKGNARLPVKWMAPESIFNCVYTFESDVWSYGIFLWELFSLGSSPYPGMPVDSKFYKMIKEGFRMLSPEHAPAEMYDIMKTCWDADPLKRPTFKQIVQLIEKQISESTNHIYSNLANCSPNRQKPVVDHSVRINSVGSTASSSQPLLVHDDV

## C=CC(=O)N1CC[C@H](Nc2nc(CN3CCOCC3)cc(Nc3ncc(C(=O)Nc4c(C)cccc4C)s3)n2)C1 [Example I-2]
Broad panel of kinases [1]
  percent of control binding remaining (lower = stronger binding): 56%
Broad panel of kinases [2]
  percent of control binding remaining (lower = stronger binding): 88%
Broad panel of kinases [3]
  percent of control binding remaining (lower = stronger binding): 99%
Broad panel of kinases [4]; ABL1(F317I)-nonphosphorylated
  percent of control binding remaining (lower = stronger binding): 0.15%
Broad panel of kinases [4]; ABL1(F317I)-phosphorylated
  percent of control binding remaining (lower = stronger binding): 5.4%
Broad panel of kinases [5]; ABL1(Q252H)-nonphosphorylated
  percent of control binding remaining (lower = stronger binding): 0.3%
Broad panel of kinases [5]; ABL1(Q252H)-phosphorylated
  percent of control binding remaining (lower = stronger binding): 0.25%
Broad panel of kinases [6]; ABL1(T315I)-nonphosphorylated
  percent of control binding remaining (lower = stronger binding): 95%
Broad panel of kinases [6]; ABL1(T315I)-phosphorylated
  percent of control binding remaining (lower = stronger binding): 69%
Broad panel of kinases [7]
  percent of control binding remaining (lower = stronger binding): 17%
Broad panel of kinases [8]
  percent of control binding remaining (lower = stronger binding): 14%
Broad panel of kinases [9]; CDK4-cyclinD1
  percent of control binding remaining (lower = stronger binding): 96%
Broad panel of kinases [9]; CDK4-cyclinD3
  percent of control binding remaining (lower = stronger binding): 94%
Broad panel of kinases [10]
  percent of control binding remaining (lower = stronger binding): 4.4%
Broad panel of kinases [11]
  percent of control binding remaining (lower = stronger binding): 4.5%
Broad panel of kinases [12]
  percent of control binding remaining (lower = stronger binding): 100%
Broad panel of kinases [13]
  percent of control binding remaining (lower = stronger binding): 88%
Broad panel of kinases [14]
  percent of control binding remaining (lower = stronger binding): 100%
Broad panel of kinases [15]
  percent of control binding remaining (lower = stronger binding): 54%
Broad panel of kinases [16]
  percent of control binding remaining (lower = stronger binding): 94%
Broad panel of kinases [17]
  percent of control binding remaining (lower = stronger binding): 1.6%
Broad panel of kinases [18]
  percent of control binding remaining (lower = stronger binding): 3.6%
Broad panel of kinases [19]
  percent of control binding remaining (lower = stronger binding): 100%
Broad panel of kinases [20]
  percent of control binding remaining (lower = stronger binding): 100%
Broad panel of kinases [21]
  percent of control binding remaining (lower = stronger binding): 97%
Broad panel of kinases [22]
  percent of control binding remaining (lower = stronger binding): 100%
Broad panel of kinases [23]
  percent of control binding remaining (lower = stronger binding): 74%
Broad panel of kinases [24]
  percent of control binding remaining (lower = stronger binding): 31%
Broad panel of kinases [25]
  percent of control binding remaining (lower = stronger binding): 100%
Broad panel of kinases [26]
  percent of control binding remaining (lower = stronger binding): 0.1%
Broad panel of kinases [27]
  percent of control binding remaining (lower = stronger binding): 94%
Broad panel of kinases [28]
  percent of control binding remaining (lower = stronger binding): 96%
Broad panel of kinases [29]
  percent of control binding remaining (lower = stronger binding): 93%
Broad panel of kinases [30]
  percent of control binding remaining (lower = stronger binding): 100%
Broad panel of kinases [31]
  percent of control binding remaining (lower = stronger binding): 95%
Broad panel of kinases [32]
  percent of control binding remaining (lower = stronger binding): 86%
Broad panel of kinases [33]
  percent of control binding remaining (lower = stronger binding): 76%
Broad panel of kinases [34]
  percent of control binding remaining (lower = stronger binding): 92%
Broad panel of kinases [35]
  percent of control binding remaining (lower = stronger binding): 36%
Broad panel of kinases [36]; EGFR(L747-E749del, A750P)
  percent of control binding remaining (lower = stronger binding): 2.2%
Broad panel of kinases [36]; EGFR(L747-S752del, P753S)
  percent of control binding remaining (lower = stronger binding): 3.6%
Broad panel of kinases [36]; EGFR(L747-T751del, Sins)
  percent of control binding remaining (lower = stronger binding): 2%
Broad panel of kinases [36]; FLT3(ITD)
  percent of control binding remaining (lower = stronger binding): 92%

## C=CC(=O)N1CC[C@H](Nc2nccc(Nc3ncc(C(=O)Nc4c(C)cccc4C)s3)n2)C1 [Example I-3]
Broad panel of kinases [1]
  percent of control binding remaining (lower = stronger binding): 61%
Broad panel of kinases [2]
  percent of control binding remaining (lower = stronger binding): 84%
Broad panel of kinases [3]
  percent of control binding remaining (lower = stronger binding): 89%
Broad panel of kinases [4]; ABL1(F317I)-nonphosphorylated
  % change compared to control: 1.2%
Broad panel of kinases [4]; ABL1(F317I)-phosphorylated
  % change compared to control: 5.2%
Broad panel of kinases [5]; ABL1(Q252H)-nonphosphorylated
  % change compared to control: 0.15%
Broad panel of kinases [5]; ABL1(Q252H)-phosphorylated
  % change compared to control: 0.3%
Broad panel of kinases [6]; ABL1(T315I)-nonphosphorylated
  % change compared to control: 100%
Broad panel of kinases [6]; ABL1(T315I)-phosphorylated
  % change compared to control: 70%
Broad panel of kinases [7]
  percent of control binding remaining (lower = stronger binding): 7.6%
Broad panel of kinases [8]
  percent of control binding remaining (lower = stronger binding): 23%
Broad panel of kinases [9]; CDK4-cyclinD1
  percent of control binding remaining (lower = stronger binding): 99%
Broad panel of kinases [9]; CDK4-cyclinD3
  percent of control binding remaining (lower = stronger binding): 95%
Broad panel of kinases [10]
  percent of control binding remaining (lower = stronger binding): 6.8%
Broad panel of kinases [11]
  percent of control binding remaining (lower = stronger binding): 6.5%
Broad panel of kinases [12]
  percent of control binding remaining (lower = stronger binding): 100%
Broad panel of kinases [13]
  percent of control binding remaining (lower = stronger binding): 100%
Broad panel of kinases [14]
  percent of control binding remaining (lower = stronger binding): 100%
Broad panel of kinases [15]
  percent of control binding remaining (lower = stronger binding): 76%
Broad panel of kinases [16]
  percent of control binding remaining (lower = stronger binding): 100%
Broad panel of kinases [17]
  percent of control binding remaining (lower = stronger binding): 1.6%
Broad panel of kinases [18]
  percent of control binding remaining (lower = stronger binding): 3.3%
Broad panel of kinases [19]
  percent of control binding remaining (lower = stronger binding): 100%
Broad panel of kinases [20]
  percent of control binding remaining (lower = stronger binding): 100%
Broad panel of kinases [21]
  percent of control binding remaining (lower = stronger binding): 91%
Broad panel of kinases [22]
  percent of control binding remaining (lower = stronger binding): 100%
Broad panel of kinases [23]
  percent of control binding remaining (lower = stronger binding): 100%
Broad panel of kinases [24]
  percent of control binding remaining (lower = stronger binding): 43%
Broad panel of kinases [25]
  percent of control binding remaining (lower = stronger binding): 100%
Broad panel of kinases [26]
  percent of control binding remaining (lower = stronger binding): 0.2%
Broad panel of kinases [27]
  percent of control binding remaining (lower = stronger binding): 100%
Broad panel of kinases [28]
  percent of control binding remaining (lower = stronger binding): 87%
Broad panel of kinases [29]
  percent of control binding remaining (lower = stronger binding): 98%
Broad panel of kinases [30]
  percent of control binding remaining (lower = stronger binding): 90%
Broad panel of kinases [31]
  percent of control binding remaining (lower = stronger binding): 92%
Broad panel of kinases [32]
  percent of control binding remaining (lower = stronger binding): 96%
Broad panel of kinases [33]
  percent of control binding remaining (lower = stronger binding): 96%
Broad panel of kinases [34]
  percent of control binding remaining (lower = stronger binding): 93%
Broad panel of kinases [35]
  percent of control binding remaining (lower = stronger binding): 50%
Broad panel of kinases [36]; EGFR(L747-E749del, A750P)
  percent of control binding remaining (lower = stronger binding): 1.4%
Broad panel of kinases [36]; EGFR(L747-S752del, P753S)
  percent of control binding remaining (lower = stronger binding): 3.6%
Broad panel of kinases [36]; EGFR(L747-T751del, Sins)
  percent of control binding remaining (lower = stronger binding): 4.2%
Broad panel of kinases [36]; FLT3(ITD)
  percent of control binding remaining (lower = stronger binding): 98%
